In brackets after ≈: the same amount, converted by molar mass. Like-named read-outs stand apart in the source and are kept apart here.
Assays:
EfMetAP1 = molecular target: T1, EfMetAP1 (Enterococcus faecalis, UniProt Q832M5); experiment: EfMetAP1 inhibition, coupled methionine-proline aminopeptidase assay; type: biochemical, E. faecalis
T1 sequence (Q832M5 1-254): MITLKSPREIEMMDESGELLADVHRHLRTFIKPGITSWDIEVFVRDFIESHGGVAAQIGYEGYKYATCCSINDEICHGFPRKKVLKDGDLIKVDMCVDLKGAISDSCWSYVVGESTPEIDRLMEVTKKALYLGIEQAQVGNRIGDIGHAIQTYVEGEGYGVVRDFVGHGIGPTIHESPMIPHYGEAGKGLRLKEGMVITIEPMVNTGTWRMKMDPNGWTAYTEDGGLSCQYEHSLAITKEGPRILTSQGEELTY
Method: 175,000 compounds were screened against EfMetAP1, using the coupled methionine-proline aminopeptidase spectrophotometric assay (FIG. 7A). The primary screen was performed at final concentrations of 30 μM in 384-well plates using a titertek instrument with liquid handling capabilities coupled to a spectrophotometer. The compounds were dissolved in dimethylsulfoxide (DMSO) and the total reaction volume was 50 μL where each reaction contained 40 mM Hepes buffer (pH 7.5), 100 mM NaCl, 100 μg/mL BSA, 0.1 U/mL ProAP, 1.5 mM CoCl2, 600 μM substrate (Met-Pro-pNA), and 1.38 μM EfMetAP1. The Enzyme was pre-incubated with compounds for 20 min at room temperature followed by addition of substrate. The reaction was incubated at room temperature for 30 min and monitored at 405 nm on a spectrophotometer. […] The background hydrolysis was corrected and the data was fitted against the sigmoidal-dose response (variable slope) equation using GraphPad prism software.

M. tuberculosis H37Ra = experiment: Activity against dormant (aged non-growing) M. tuberculosis, XTT; type: cell-based, Mycobacterium tuberculosis; details: for MIC: Mycobacterium tuberculosis, H37RA, read-out: MIC dormant M. tuberculosis Strain H37Ra
Method: The activity of the compounds in aged non-growing M. tuberculosis was achieved using a perister model at concentrations […] and monitored for three weeks. Briefly, 2 month old M. tuberculosis H37Ra culture was grown in 7H9 medium (Difco) with 10% albumin dextrose catalase (ADC) and 0.05% Tween 80. […] The compound was diluted from a 10 mM (in DMSO) to 10 μM (final concentration) and incubated with the bacilli in […] 7H9 medium (pH 5.5) without ADC in a 96-well plate for three days without shanking under 1% oxygen in a hypoxic chamber. This assay was performed in duplicates with Rifampin (5 mg/mL). Following a 3 day drug exposure, bacilli viability was determined by adding […] of 1 mg/mL of XTT (2,3-bis-(2-methoxy-4-nitro-5-sulfophenyl)-2H-tetrazolium-5-carboxanilide) and incubated at 37° C. for up to 7 days. The 96 well plates were then read at OD 485 nm.

HIV-1 transcription = details: Debebe et. al. 2007; cited from earlier work
LmMetAP1 = molecular target: T2, LmMetAP1 (Leishmania major, UniProt Q4QDG7); experiment: LmMetAP1 enzyme inhibition (l-Met-pNA); type: biochemical
T2 sequence (Q4QDG7 1-401): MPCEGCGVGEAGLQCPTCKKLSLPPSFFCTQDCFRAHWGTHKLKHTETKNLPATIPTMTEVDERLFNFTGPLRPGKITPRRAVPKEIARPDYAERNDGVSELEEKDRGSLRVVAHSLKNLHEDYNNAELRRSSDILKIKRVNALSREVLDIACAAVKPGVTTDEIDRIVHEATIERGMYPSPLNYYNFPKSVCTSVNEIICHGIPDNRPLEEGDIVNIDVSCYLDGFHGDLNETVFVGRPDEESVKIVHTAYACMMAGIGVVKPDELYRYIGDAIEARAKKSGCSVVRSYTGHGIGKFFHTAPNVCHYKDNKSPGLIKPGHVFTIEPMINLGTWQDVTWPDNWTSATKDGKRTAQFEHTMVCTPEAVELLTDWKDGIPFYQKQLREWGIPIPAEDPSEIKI
Text: After cloning, overexpressing and purifying the protein to near homogeneity, the chromogenic substrate I-methionine-p-nitroanalide (I-Met-pNA) (Sigma) was used to determine inhibition of the enzyme using various compounds (Mitra et al. 2006).

M. tuberculosis CDC 1551 = experiment: Minimum Inhibitory Concentration in replicating M. tuberculosis; type: cell-based, Mycobacterium tuberculosis; details: replicating culture; for MIC: Mycobacterium tuberculosis, CDC1551, read-out: Minimum Inhibitory Concentration Wild-type M. tuberculosis Strain CDC1551
HsMetAP1 = HsMetAP1 (Homo sapiens, UniProt P53582); experiment: MetAP enzyme inhibition IC50; type: biochemical
Method: (§1) The enzyme was pre-incubated with compounds for 20 minutes at room temperature followed by addition of substrate. The reaction was incubated at room temperature for 30 min and monitored at 405 nm on a spectrophotometer. The background hydrolysis was subtracted and the data was fitted to a four-parameter logistic (variable slope) equation using GraphPad Prism software.

HsMetAP2 = HsMetAP2 (Homo sapiens, UniProt P50579); experiment: MetAP enzyme inhibition IC50; type: biochemical
Method: as §1

[1] = system: Wild-type L. major promastigotes; experiment: Leishmania major luciferase assay, wild type promastigotes; details: read-out: Wild-type L. major promastigotes EC50
Method: Promastigote forms of L. major strain Friedlin clone V1 expressing firefly luciferase were grown in M199 medium supplemented with hemin and 10% fetal bovine serum (FBS) inactivated at 56° C. for 30 minutes and treated with 50 ng/mL streptothricin neosulfate for maintenance of LUC gene.
(§2) Compounds were screened against L. major strain friedlin clone V1 promastigotes expressing firefly luciferase at concentrations ranging from 100 μM-780 nM in a 96 well plate. These experiments were done in triplicates using L. major media and 10^6 parasites per well. The plates were incubated for 24, 48, 72 and 96 hours at 28° C. Amphotericin B (AB) was used as a positive control at 5 μM as a comparison to the leishmanicidal activity of the inhibitors. The inhibitory effects of the compounds were assessed by monitoring parasite survival through luciferase activity. The substrate 5′-fluoroluciferin (ONE-Glo Luciferase Assay System, Promega, Madison, Wis.) was added according to the manufacturer's protocol after each time point. The plates were read using a luminometer (Luminoskan, Thermo Scientific, Rockford, Ill.). Data was analyzed using GraphPad Prism Software (GraphPad Software, Inc., La Jolla, Calif.).

[2] = system: L. major promastigotes over-expressing LmMetAP1; experiment: Leishmania major luciferase assay, promastigotes over-expressing LmMetAP1; type: cell-based; details: read-out: L. major promastigotes over-expressing LmMetAP1 EC50
Method: as §2
LmMetAP1 was cloned in the Leishmania expression vector pXG, and parasites were transfected. The parasites overexpressing LmMetAP1 were selected for and cloned.

HIV-1 (89.6 strain) = experiment: microbe, parasite or virus in culture; type: cell-based; details: for inhibition of HIV-1 p24 antigen production: HIV-1 infected PBMC, ELISA; for inhibitory concentration equivalent to negative control (blank): p24 ELISA; for IC50: Human immunodeficiency virus 1, PBMC, read-out: concentration required for 50% inhibition of HIV1 p24 produced, primary screen, preliminary
E. faecalis OG1RF [3] = experiment: Liquid-based C. elegans infection model, survival; type: in vivo, Enterococcus faecalis; details: C. elegans
E. faecalis OG1RF [4] = experiment: Assay of E. faecalis inhibition (MIC) in BHI culture; details: Enterococcus faecalis, read-out: Minimum Inhibitory Concentration MIC30 OG1RF
E. faecalis V583 [5] = experiment: Liquid-based C. elegans infection model, survival
E. faecalis V583 [6] = experiment: Assay of E. faecalis inhibition (MIC) in BHI culture
M. bovis BCG = type: cell-based, Mycobacterium bovis; details: for CFU from cellular lysates (intracellular M. bovis BCG): 7 d p.i., RIF 5.0 μg/mL, INH 0.1 μg/mL
MtMetAP1a = MtMetAP1a (Mycobacterium tuberculosis, UniProt P9WK21); experiment: MetAP enzyme inhibition IC50 (Met-Pro-pNA coupled assay); type: biochemical
MtMetAP1c = MtMetAP1c (Mycobacterium tuberculosis, UniProt P9WK19); experiment: as above; type: biochemical
Method: A primary high throughput screen was conducted using MAP-C2 microplate processor (Titertek Instruments, Inc., Huntsville, Ala. USA). A library of 175,000 compounds at 30 μM were assayed in a 384 well plates using a dipeptide chromogenic substrate, methionine-proline coupled to p-Nitroaniline (Met-Pro-pNA). Each compound was dissolved in DMSO and stored at −20° C. until use. The total reaction volume was 50 μL, and each reaction contained 40 mM HEPES buffer (pH 7.5), 100 mM NaCl, […], 0.1 U/mL ProAP, 1.5 mM CoCl2, […] (Met-Pro-pNA), and 252 nM MtMetAP1c. The enzyme was pre-incubated with compounds for 20 minutes at room temperature followed by addition of […]. The reaction was then incubated at room temperature for 30 min and monitored at 405 nm on a spectrophotometer.
as §1

C. elegans = experiment: Toxicity in non-infected C. elegans; details: 10 μg/mL

Chain of HsMetAP2 (P50579 whole entry): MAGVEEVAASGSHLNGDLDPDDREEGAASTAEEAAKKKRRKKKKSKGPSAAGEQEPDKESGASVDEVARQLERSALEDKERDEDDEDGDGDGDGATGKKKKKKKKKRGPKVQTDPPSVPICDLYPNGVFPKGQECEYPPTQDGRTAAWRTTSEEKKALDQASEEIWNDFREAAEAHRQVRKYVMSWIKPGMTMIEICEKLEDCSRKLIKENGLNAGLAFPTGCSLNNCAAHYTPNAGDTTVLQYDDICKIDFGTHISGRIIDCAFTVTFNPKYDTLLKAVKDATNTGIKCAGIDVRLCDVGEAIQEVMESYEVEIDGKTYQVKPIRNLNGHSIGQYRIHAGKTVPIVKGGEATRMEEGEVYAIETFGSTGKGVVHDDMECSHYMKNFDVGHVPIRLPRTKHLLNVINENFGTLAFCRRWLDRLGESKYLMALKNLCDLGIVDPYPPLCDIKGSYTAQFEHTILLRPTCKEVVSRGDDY
Chain of MtMetAP1a (P9WK21 whole entry): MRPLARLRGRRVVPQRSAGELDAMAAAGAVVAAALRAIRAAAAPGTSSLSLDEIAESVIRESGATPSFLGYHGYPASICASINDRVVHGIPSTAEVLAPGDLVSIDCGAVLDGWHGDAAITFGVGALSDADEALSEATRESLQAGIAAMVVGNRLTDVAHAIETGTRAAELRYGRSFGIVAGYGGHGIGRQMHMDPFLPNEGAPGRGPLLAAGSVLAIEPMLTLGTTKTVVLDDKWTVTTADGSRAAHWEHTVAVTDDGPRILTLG
Chain of MtMetAP1c (P9WK19 whole entry): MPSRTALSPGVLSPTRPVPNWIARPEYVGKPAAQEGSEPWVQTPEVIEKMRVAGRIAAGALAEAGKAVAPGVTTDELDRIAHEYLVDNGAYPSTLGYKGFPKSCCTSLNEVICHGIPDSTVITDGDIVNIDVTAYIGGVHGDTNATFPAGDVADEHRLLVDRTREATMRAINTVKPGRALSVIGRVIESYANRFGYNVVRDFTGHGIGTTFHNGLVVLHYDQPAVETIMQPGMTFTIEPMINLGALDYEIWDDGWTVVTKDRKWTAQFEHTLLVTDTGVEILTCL

SMILES: CC(=O)Oc1c(Cl)cc(Cl)c2cccnc12
- IC50 (EfMetAP1): 14.6 µM

SMILES: O=C(N/N=C/c1c(O)ccc2ccccc12)c1ccncc1 [Compound 1, 2-hydroxy-1-naphthylaldehyde isonicotinoyl hydrazone]
- concentration that perturbed the growth of aged non-growing Mtb bacilli (M. tuberculosis H37Ra; XTT): 1.82 µg/mL
- IC50 (HIV-1 transcription): 2 µM
- IC50 (LmMetAP1; read-out: MetAP IC50 LmMetAP1): 10 to 100 µM
- MIC (M. tuberculosis CDC 1551): < 10 µg/mL
- IC50 (HsMetAP1): 315 µM
- IC50 (HsMetAP2): 146 µM
- EC50 [1]: 0.64 µM
- EC50 [2]: > 10 µM
- inhibition of HIV-1 p24 antigen production (HIV-1 (89.6 strain)): inhibited the production of HIV-1 p24 antigen in a dose response manner
- inhibitory concentration equivalent to negative control (blank) (HIV-1 (89.6 strain)): 274.0 nM

SMILES: Oc1ccccc1/C=N/Nc1ncnc2sc3c(c12)CCCC3 [Compound 2, 2-{(E)-[2-(5,6,7,8-tetrahydro[1]benzothieno[2,3-d]pyrimidin-4-yl)hydrazinylidene]methyl}phenol]
- IC50 (LmMetAP1): > 2.5 µM
- MIC (M. tuberculosis CDC 1551): < 10 µg/mL
- EC50 [1]: 0.375 µM
- EC50 [2]: 9 µM
- inhibition of HIV-1 p24 antigen production (HIV-1 (89.6 strain)): inhibited p24 antigen productions in a dose dependent manner
- inhibitory concentration equivalent to negative control (blank) (HIV-1 (89.6 strain)): 234.0 nM

SMILES: Cc1nc(-c2ccccn2)nc(N(C)Cc2ccccc2)c1Cl [Compound 3, N-benzyl-5-chloro-N,6-dimethyl-2-(pyridin-2-yl)pyrimidin-4-amine]
- IC50 (LmMetAP1): > 1 µM
- MIC (M. tuberculosis CDC 1551): < 5 µg/mL
- EC50 [1]: 0.243 µM
- EC50 [2]: 5 µM
- inhibition of HIV-1 p24 antigen production (HIV-1 (89.6 strain)): inhibited p24 antigen productions in a dose dependent manner

SMILES: Clc1cc2c(c3ncccc13)OCN(C1CCCCC1)C2 [Compound 8, 6-chloro-3-cyclohexyl-3,4-dihydro-2H-[1,3]oxazino[5,6-h]quinolin]
- IC50 (EfMetAP1): 5.24 µM
- MPC (Minimum Protective Concentration) OG1RF (E. faecalis OG1RF [3]): 4e-11 µg/mL
- MmaxPC (Maximum Protective Concentration) OG1RF (E. faecalis OG1RF [3]): 4e-08 µg/mL
- MIC (E. faecalis OG1RF [4]): 5 to 10 µg/mL (≈ 16.5 to 33 µM)
- MPC (Minimum Protective Concentration) V583 (E. faecalis V583 [5]): 4e-11 µg/mL
- Minimum Inhibitory Concentration MIC30 V583 (E. faecalis V583 [6]): 0.50 to 1.50 µg/mL
- MIC (E. faecalis V583 [6]; Enterococcus faecalis, V583, read-out: Minimum Inhibitory Concentration MIC30 V583): 0.5 to 1.5 µg/mL (≈ 1.65 to 4.95 µM)
- IC50 (HIV-1 (89.6 strain)): > 3.75 µM

SMILES: NNC(=O)c1ccncc1 [Isoniazid, reference compound]
- CFU from cellular lysates (intracellular M. bovis BCG) (M. bovis BCG): dramatically reduced CFU
- IC50 (HIV-1 (89.6 strain)): > 2 µM

SMILES: CO[C@H]1/C=C/O[C@@]2(C)Oc3c(C)c(O)c4c(O)c(c(/C=N/N5CCN(C)CC5)c(O)c4c3C2=O)NC(=O)/C(C)=C\C=C\[C@H](C)[C@H](O)[C@@H](C)[C@@H](O)[C@@H](C)[C@H](OC(C)=O)[C@@H]1C [RIF, Rifampicin]
- CFU from cellular lysates (intracellular M. bovis BCG) (M. bovis BCG): dramatically reduced CFU
- intracellular BCG by flow cytometry (M. bovis BCG; macrophages, 7 days): Reduction

SMILES: O=C(N/N=C/c1c(O)ccc2ccccc12)c1ccncc1 [drawing 22]
- IC50 (MtMetAP1a): 4.9 µM
- IC50 (MtMetAP1c): 5.3 µM
- Minimum Inhibitory Concentration Wild-type M. tuberculosis Strain CDC1551 (M. tuberculosis CDC 1551): <10.0 µg/mL
- IC50 (HsMetAP1): 315 µM
- IC50 (HsMetAP2): 146 µM

SMILES: Oc1ccccc1/C=N/Nc1ncnc2sc3c(c12)CCCC3 [drawing 23]
- IC50 (MtMetAP1a): < 30 µM
- IC50 (MtMetAP1c): < 30 µM
- Minimum Inhibitory Concentration Wild-type M. tuberculosis Strain CDC1551 (M. tuberculosis CDC 1551): <10.0 µg/mL

SMILES: Cc1nc(-c2ccccn2)nc(N(C)Cc2ccccc2)c1Cl [drawing 24]
- Minimum Inhibitory Concentration Wild-type M. tuberculosis Strain CDC1551 (M. tuberculosis CDC 1551): <5.0 µg/mL

SMILES: O=C(N/N=C/c1c(O)ccc2ccccc12)c1ccncc1 [drawing 25]
- MIC (M. tuberculosis H37Ra): 6.25 µM (≈ 1.82 µg/mL)

SMILES: Oc1ccccc1/C=N/Nc1ncnc2sc3c(c12)CCCC3 [drawing 26]
- MIC (M. tuberculosis H37Ra): 25 µM (≈ 8.11 µg/mL)

SMILES: Oc1c(Br)cc(Cl)c2cccnc12 [drawing 36]
- IC50 (EfMetAP1): 12 µM

SMILES: Oc1c(I)cc(Cl)c2cccnc12 [drawing 38]
- IC50 (EfMetAP1): 18.4 µM

SMILES: CN(C)[C@@H]1C(O)=C(C(N)=O)C(=O)[C@@]2(O)C(O)=C3C(=O)c4c(O)cccc4[C@@](C)(O)[C@H]3C[C@@H]12 [tetracycline]
- survival of non-infected animals (C. elegans): did not decrease survival

From patent US20170304288A1, “Formulations of Methionine Aminopeptidase Inhibitors for Treating Infectious Diseases” (Texas Southern University, priority 2013, published 2017)
